Here are results for three molecules from patent US20190022104A1 (priority 2016, published 2019).

Several values for one entry are separate records, joined by “and”; a condition that tells them apart may be missing. Equal entries are not always repeated. Entries after “also recorded” stand apart in the source; their conditions may differ. Where two headings read alike, the source gives them in different places.

Data set [1] deals with liver tissue of rats with sepsis shock. The data set is described as follows: Pathological change in liver tissue under microscope, rats with sepsis shock. The class given is in vivo. Conditions: compared with the endotoxin group. Here is the method: (§1) The model of septic shock in mice was induced by intraperitoneal injection of a toxic dose of 75 mg/kg endotoxin. […] The model of sepsis shock in mice was induced by intraperitoneal injection of a total lethal dose of 150 mg/kg endotoxin. […] Mice injected intraperitoneally with placebo in place of endotoxin were used as a normal control group.

For data set [2], the system named is mice with sepsis shock induced by 150 mg/kg endotoxin. Put plainly: Survival time of mice with sepsis shock induced by 150 mg/kg endotoxin. The class given is in vivo. The following applies: for average survival time of mice: 150 mg/kg endotoxin i.p. (total lethal dose), endotoxin group 29.15±6.84 hours, p<0.05 vs endotoxin group. Here is the method:
as §1
The septic shock in mice was induced with 150 mg/kg endotoxin and the survival curves were plotted according to the survival time of mice in each group.

Data set [3] concerns lung tissue of rats with sepsis shock. Put plainly: Pathological change in lung tissue under microscope, rats with sepsis shock. It counts as in vivo. Conditions: compared with the endotoxin group.
In the next data set the test system is TNF-α in serum. The data set is described as follows: Serum TNF-α concentration in rats with endotoxin-induced sepsis shock. It counts as in vivo.
Data set [4] deals with mice with sepsis shock induced by 75 mg/kg endotoxin. The data set is described as follows: Survival of mice with sepsis shock induced by 75 mg/kg endotoxin. It counts as in vivo. Conditions: for number of mice survived / number of mice died: 10 mice per group; for number of mice survived: endotoxin group 4 survived; for number of mice died: endotoxin group 6 died; for survival rate of mice: sepsis shock induced by 75 mg/kg endotoxin i.p., 10 animals per group, endotoxin group 40%, normal control 100%. On the procedure: as §1
The model of sepsis shock in mice was induced with 75 mg/kg endotoxin.

Data set [5] deals with mouse sepsis model (LPS 75 mg/kg). Put plainly: Effects of different doses of pirenzepine in LPS mouse sepsis model. Conditions: 0.3-1.2 mg/kg i.p.; no statistically significant difference between dose groups.
Protocol: After 30 minutes, LPS (75 mg/kg) was injected intraperitoneally to produce a mouse sepsis model.
Data set [6] concerns gastric and duodenal ulcers. The following applies: patients; cited from earlier work.
For data set [7] the following is noted: cited from earlier work.
The conditions of data set [8]: cited from earlier work. The source holds these as a separate data set.
Where [9] appears, read: 0 min after sepsis shock was reached, endotoxin group 641.05±24.75, normal control 159.36±50.40.
[10] abbreviates: 30 min after sepsis shock was reached, endotoxin group 677.95±47.05, normal control 223.41±27.42.
Setting [11] is: 90 min after sepsis shock was reached, endotoxin group 716.11±24.41, normal control 166.86±28.80.

Regarding `CCN(CC)CC1CCCCN1CC(=O)N1c2ccccc2C(=O)Nc2cccnc21` (centres unmarked) [AF-DX116, 11-[[2-[(Diethylamino)methyl]-1-piperidinyl]acetyl]-5,11-dihydro-6H-pyrido[2,3-b][1,4]benzodi azepin-6-one], the “pathological changes of the liver tissue under microscope” value in data set [1] is recorded as “cell necrosis was more serious; also recorded: cell necrosis was more severe”. The “average survival time of mice” value in data set [2] came out at 16.02 ± 2.06 h. Further, the “pathological changes of the lung tissue under microscope” value (from here on “pathological changes of the lung tissue”) in data set [3] is given as “the destruction of the tissue was aggravated; also recorded: pathological changes were aggravated”. Besides, the “concentration of TNF-α in serum of rats” value in the data set with TNF-α in serum (setting [9]) was 706.19 ± 6.00 pg/mL; in the data set with TNF-α in serum (setting [10]), 757.48 ± 51.40 pg/mL; in the data set with TNF-α in serum (setting [11]), 857.21 ± 74.14 pg/mL; in the data set with TNF-α in serum (150 min after sepsis shock was reached, endotoxin group 737.00±16.38, normal control 161.47±9.75), 932.22 ± 17.25 pg/mL. Further, the “number of mice survived” value in data set [4] (75 mg/kg endotoxin) was determined as 1. In addition, the “number of mice died” value in data set [4] (75 mg/kg endotoxin) amounted to 9. In addition, in [4], the “survival rate of mice” value was found to be 10%.

Take `CN1[C@@H]2CC[C@H]1C[C@@H](OC(=O)C(CO)c1ccccc1)C2` (some centres unmarked) [atropine]: in data set [1], the “pathological changes of the liver tissue under microscope” value is “the lesions were all relieved; also recorded: the edema and necrosis of hepatocytes were all reduced”. The “average survival time of mice” value in [2] was 37.15 ± 9.27 h. In [3], the “pathological changes of the lung tissue” value is “congestion, exudation, and necrosis were significantly reduced; also recorded: the exudation was significantly reduced, and alveolar septum widening was reduced”. Moreover, in the data set on TNF-α in serum (setting [11]), the “concentration of TNF-α in serum of rats” value was 598.54±48.85 pg/mL and 598.54 ± 48.85^f pg/mL. The “number of mice survived” value in [4] (75 mg/kg endotoxin) is 7. In [4], the “survival rate of mice” value is given as 70%.

As for `CN1CCN(CC(=O)N2c3ccccc3C(=O)Nc3cccnc32)CC1` [pirenzepine, 11-[(4-methylpiperazin-1-yl)acetyl]-5,11-dihydro-6H-pyrido[2,3-b][1,4]benzodiazepin-6-one], the “pathological changes of the liver tissue under microscope” value in data set [1] is recorded as “the lesions were all relieved; also recorded: the lesions were reduced”. Moreover, the “effect on mortality of mice with sepsis” value in data set [2] (150 mg/kg endotoxin, FIG. 2) is given as “significantly reduced the mortality”; in [4] (75 mg/kg endotoxin, FIG. 1) it was “significantly reduced the mortality”. The “average survival time of mice” value in data set [2] turned out to be 44.6 ± 11.96 h. Also, the “pathological changes of the lung tissue” value in data set [3] is “congestion, exudation, and necrosis were significantly reduced; also recorded: the exudation was significantly reduced, and edema and inflammation in the alveolar septum were reduced”. Moreover, the “concentration of TNF-α in serum of rats” value in the data set with TNF-α in serum (setting [9]) is 378.12±17.87 pg/mL and 378.12 ± 17.87^a pg/mL; in the data set with TNF-α in serum (setting [10]) it was 418.19±22.75 pg/mL and 418.19 ± 22.75^c pg/mL; with TNF-α in serum (setting [11]) it was 446.35±33.04 pg/mL and 446.35 ± 33.04^e pg/mL. Besides, the “serum TNF-α concentrations compared with the endotoxin-untreated group” value in the data set with TNF-α in serum (rats, at 0, 30, 90 and 150 minutes, p<0.05) is reported as “significantly lower”. Moreover, the “effect of low-dose pretreatment on survival time of mice with sepsis” value in data set [5] is reported as “can prolong the survival time”. For the same molecule, the “healing rate of the ulcer” value in data set [6] is listed as 70%-94%. Further, the solubility result in [7] (in anhydrous ethanol) is listed as “very easily soluble”; in data set [7] (in formic acid), “soluble”; in data set [7] (in methanol), “insoluble”; in data set [7] (in water), “soluble”. In addition, the “number of mice survived” value in data set [4] (75 mg/kg endotoxin) is recorded as 8. For the same molecule, the “number of mice died” value in [4] (75 mg/kg endotoxin) was 2. Moreover, the “survival rate of mice” value in data set [4] turned out to be 80%. Also, the “plasma protein binding rate” value in data set [8] (in vivo) is recorded as “about 10%”. In data set [8] (in vivo), the “plasma t½” value is 10 to 12 h. Moreover, the tmax in data set [8] (oral) was 2 to 3 h. In addition, the absolute bioavailability result in data set [8] (oral, printed spread (±4,6%)) is recorded as “about 26%”.
